Laboratory results reported in patent US11918693B2, “Ibuprofen and acetaminophen tablet” (GlaxoSmithKline Consumer Healthcare Holdings (US) LLC, priority 2019, dated 2024).

Test system: patients with moderate-severe pain after ≥3 third molar extractions
Experiment: Study 2: phase 3 single-dose dental pain study, FDC vs IBU 250 mg, APAP 650 mg and placebo
Format: in vivo, human
Conditions: for Dizziness, treatment-emergent adverse event, n (%) / Flushing, treatment-emergent adverse event, n (%) / Headache, treatment-emergent adverse event, n (%) / Nausea, treatment-emergent adverse event, n (%) / Vomiting, treatment-emergent adverse event, n (%): Single-Dose Study 2; for SPID[11]0-8, Tx Diff vs. placebo: first treatment − second treatment, IBU 250 mg, APAP 650 mg; for Number (%) of patients with treatment failure: 12-hour study
Protocol: Two Studies were performed, both single-center, phase 3, randomized, double-blind, parallel-group, placebo-controlled studies conducted in the United States. Study 2 was a single-dose study whereas Study 3 was a multiple-dose study. The studies were performed in compliance with the ethical principles originating in or derived from the Declaration of Helsinki and in compliance with all International Council for Harmonization Good Clinical Practice Guidelines, as well as all local regulatory requirements.
In Study 2, patients experiencing moderate-severe pain after ≥3 third molar extractions, with at least 2 with partial or complete mandibular impaction, were randomized 3:3:3:1 to receive single-dose FDC IBU/APAP 250 mg/500 mg (administered as 2 tablets of IBU 125 mg/APAP 250 mg), IBU 250 mg alone, APAP 650 mg alone, or placebo under double-blind conditions. Patients self-assessed pain severity and pain relief on site for 12 hours following administration of study medication.
Rescue medication consisted of tramadol hydrochloride 50-100 mg or codeine sulfate 15-60 mg, both immediate release, and patients could administer additional doses every 4-6 hours as needed up to the maximum labeled daily dose. Patients who took rescue medication remained at the study site for the full duration of each study (12 or 48 hours, respectively) and continued to perform assessments.
In both studies 2 and 3, patients were healthy adult males or females aged 18-40 years inclusive, who had undergone surgical extraction of ≥3 third molar teeth (≥2 must have been partial or complete bony mandibular impactions). Other key entry criteria included moderate-severe pain confirmed by a rating of ≥50 mm on a 100-mm visual analog pain severity rating (PSR) scale within approximately 5 hours after completion of surgery and use of only the following preoperative medications/anesthetics: topical benzocaine, a short-acting parenteral local anesthetic (mepivacaine or lidocaine) with or -without a vasoconstrictor and/or nitrous oxide, and no contraindications to the study or rescue medications.
In Study 2, enrolled patients received one of 4 treatments: 1) placebo (administered as 2 tablets); 2) FDC IBU/APAP 250 mg/500 mg (administered as 2 caplets of IBU 125 mg/APAP 250 mg); 3) IBU 250 mg (administered as 2 caplets of IBU 125 mg); or APAP 650 mg (administered as 2 tablets of APAP 325 mg).
At baseline, patients provided self-ratings of pain severity using categorical and numerical PSR scales. The categorical PSR used a 4-point scale (none, mild, moderate, severe), with each category assigned a number from 0 (none) to 3 (severe). Patients reporting at least moderate pain on the categorical PSR at baseline completed a 100-mm visual analog scale. A score of at least 50 mm confirmed eligibility for the study. Additionally, an 11-point (0-10; 0=none to 10=worst possible pain) numerical PSR scale was also used to assess pain.
Once study treatment was administered, the categorical PSR, numerical PSR, and a 5-point categorical pain relief rating scale (0=none, 1=a little, 2=some, 3=a lot, 4=complete) were obtained at predefined assessment times to assess pain and pain relief. In Study 2 (single-dose trial), these assessments were performed at 0.25, 0.5, 1, 1.5, 2, 3, 4, 5, 6, 7, 8, 9, 10, 11, and 12 hours post-treatment. In Study 3 (multiple-dose trial), these assessments were performed at the same time points as in Study 2 up to 12 hours and also at 16, 24, 32, 40, and 48 hours post-treatment Additional evaluations included patient assessments of time to first perceptible pain relief (TFPR), defined as the time that a patient first began to feel any pain-relieving effect whatsoever of the drug and time to meaningful pain relief (TMPR), defined as the time that a patient experienced pain relief that was meaningful to that individual, using the double-stopwatch method, see Mehlisch D R et al., 2010, ibid. […]

[1] = IBU dose 250 mg, APAP dose 650 mg
[2] = Study 2, single oral dose, IBU dose 250 mg, APAP dose 650 mg

SMILES | Dizziness, treatment-emergent adverse event, n (%) [1] | Flushing, treatment-emergent adverse event, n (%) [1] | Headache, treatment-emergent adverse event, n (%) [1] | Nausea, treatment-emergent adverse event, n (%) [1] | Vomiting, treatment-emergent adverse event, n (%) [1] | SPID[11]0-8, Tx Diff vs. placebo (Study 2, LSM difference) | Cumulative proportion of treatment failures after 8 hours [2] [%] | Median duration of pain relief (time to treatment failure) [2] [min] | Median time to onset of first perceptible pain relief (TFPR) [2] [min] | Median time to onset of meaningful pain relief (TMPR) [2] [min] | Number (%) of patients with meaningful relief [2] | Number (%) with event, first perceptible pain relief table [2] | SPID[11]0-8, Mean (SD) [2] | SPID[11]0-8, Median [2] | Number (%) of patients with treatment failure [2] | SPID[11]0-8, Tx Diff vs. APAP (Study 2, LSM difference, comparator APAP 650 mg, IBU dose 250 mg) | Median duration of pain relief (median time to treatment failure) [2] [h]
CC(=O)Nc1ccc(O)cc1 [APAP, N-(4-hydroxyphenyl)acetamide] | 12 (7.3) n (%) | 1 (0.6) n (%) | 4 (2.4) n (%) | 33 (20.0) n (%) | 20 (12.1) n (%) | 15.32 | 51.5 | 449.0 | 24.2 | 56.6 | 118 (71.5) n (%) | 118 (71.5) n (%) | 19.4 (20.0) | 16.8 | 105 (63.6) n (%) | – | –
CC(C)Cc1ccc(C(C)C(=O)O)cc1 (centres unmarked) [IBU, 2-(4-isobutylphenyl) propionic acid] | 6 (3.4) n (%) | 2 (1.1) n (%) | 3 (1.7) n (%) | 24 (13.7) n (%) | 15 (8.6) n (%) | 24.42 | 33.1 | 608.5 | 24.6 | 65.9 | 139 (79.4) n (%) | 139 (79.4) n (%) | 28.9 (20.5) | 30.5 | 105 (60.0) n (%) | 9.10 | 10.1
